Data on two compounds can be found in patent US6831075B2, “Heterocyclic substituted pyrazolones” (Cephalon, Inc., priority 1999, dated 2004).

The structures appear in SMILES notation.

This assay concerns the target T1, recombinant human baculoviral VEGFR2 cyctoplasmic domain (Homo sapiens, UniProt P35968).
T1 construct: recombinant human baculoviral VEGFR2 cyctoplasmic domain; host or cells: baculovirus expression system
As to the kind of experiment: VEGFR2 kinase inhibition assay (ELISA-based, time-resolved fluorescence). The class given is biochemical. The following applies: 1 uM compound; 30 μM ATP; read-out: VEGFR-2 kinase % inhibition @ 1 uM. On the procedure:
Inhibition of Vascular Endothelial Growth Factor Receptor-2 Kinase Activity
Assay were performed as described for trkA kinase below. The 96-well microtiter plate (FluoroNUNC Maxisorp) was coated with 40 μg/ml recombinant human phospholipase C-γ1/glutathione S-transferase fusion protein. Inhibition studies were performed in 100 μl assay mixtures containing 50 mM HEPES, pH 7.4, 30 μM ATP, 10 mM MnCl2, 0.1% BSA, 2% DMSO, and 1 μM of test compound. The reaction was initiated by adding prephosphorylated recombinant human baculoviral VEGFR2 cyctoplasmic domain. The reaction was allowed to proceed for 15 minutes at 37° C. The detection antibody, eurpium-labeled anti-phosphotyrosine antibody (Wallac #CR04-100), was added at 1:5000 dilution in block buffer (3% BSA in TBST).
(In an ELISA, binding on a coated surface is turned into a signal by an enzyme label.)

Broadly, the inhibition is the relative decrease from the control value, in per cent.

T1 sequence (P35968 786-1356 limits assumed): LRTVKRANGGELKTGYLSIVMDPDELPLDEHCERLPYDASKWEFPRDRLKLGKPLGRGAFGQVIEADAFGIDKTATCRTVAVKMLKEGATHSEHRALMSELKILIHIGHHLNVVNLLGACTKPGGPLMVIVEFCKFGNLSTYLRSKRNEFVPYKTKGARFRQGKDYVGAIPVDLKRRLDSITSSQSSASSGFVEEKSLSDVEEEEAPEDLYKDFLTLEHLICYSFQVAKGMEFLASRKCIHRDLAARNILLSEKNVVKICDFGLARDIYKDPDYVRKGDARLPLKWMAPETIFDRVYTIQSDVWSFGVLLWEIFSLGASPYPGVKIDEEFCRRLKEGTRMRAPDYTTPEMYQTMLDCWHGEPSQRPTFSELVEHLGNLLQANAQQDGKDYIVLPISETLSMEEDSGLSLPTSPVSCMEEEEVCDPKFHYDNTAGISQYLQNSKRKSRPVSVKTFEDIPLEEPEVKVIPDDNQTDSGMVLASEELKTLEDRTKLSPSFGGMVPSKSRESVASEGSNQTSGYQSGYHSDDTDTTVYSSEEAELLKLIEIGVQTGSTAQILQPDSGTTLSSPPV

As for `Cc1cc(C)c(C=C2C(=O)NN=C2c2c[nH]c3ccccc23)[nH]1` [Compound 76, 4-[(3,5-dimethylpyrrol-2-yl)methylene]-3-indol-3-yl-2-pyrazolin-5-one], the inhibition at 1 µM turned out to be 39%.

On to `Cc1cc(C)c(CC2C(=O)NN=C2c2c[nH]c3ccccc23)[nH]1` (centres unmarked) [Compound 77, 4-[(3,5-dimethylpyrrol-2-yl)methyl]-3-indol-3-yl-2-pyrazolin-5-one], for which the inhibition at 1 µM came to 21%.
